Test results reported in patent publication US20070054325A1, “Materials and methods for screening modulators of neural regeneration” (REGLIA, priority 2005, published 2007).
Read-outs that look alike come from different tables or passages of the source. One block for each compound: values may come before it. Bridges are numbered along the chain shown (N, C = ends). Where no end group is shown, it is not given here.

Assays:
ETBR = conditions: Rogers et al., Glia 2003, cited from earlier work
C3aR = biological target: T1, C3aR (Mus musculus, UniProt O09047); experiment: Basal neurogenesis in mice treated with a C3aR antagonist (BrdU/Dcx/NeuN immunostaining); type: in vivo, wild-type C57BL/6 mice; conditions: for number of Dcx^posBrdU^pos cells, lower compared to control mice: 500 μg/mouse twice daily for 10 days
T1 construct: wild-type C57BL/6 mice (8 week old male; n=12) were injected with a nonpeptide antagonist of the C3aR; from tissue; host or cells: living wild-type C57BL/6 mice; read-out in brain (SVZ, dentate gyrus, olfactory bulb)
T1 sequence (O09047 1-477): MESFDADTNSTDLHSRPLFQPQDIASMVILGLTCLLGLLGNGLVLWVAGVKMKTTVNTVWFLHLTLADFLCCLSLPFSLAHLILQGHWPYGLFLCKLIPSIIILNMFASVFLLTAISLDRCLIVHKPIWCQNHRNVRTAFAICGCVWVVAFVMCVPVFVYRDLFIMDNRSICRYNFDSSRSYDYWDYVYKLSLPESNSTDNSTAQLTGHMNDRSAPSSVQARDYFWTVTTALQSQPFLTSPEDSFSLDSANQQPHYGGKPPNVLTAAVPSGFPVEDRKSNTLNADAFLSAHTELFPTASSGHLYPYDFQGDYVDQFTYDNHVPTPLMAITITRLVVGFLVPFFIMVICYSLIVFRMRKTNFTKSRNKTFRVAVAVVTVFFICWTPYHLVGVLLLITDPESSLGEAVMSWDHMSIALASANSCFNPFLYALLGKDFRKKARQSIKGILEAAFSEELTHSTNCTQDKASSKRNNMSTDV
Method: To assess whether signaling through the C3aR plays a role in basal neurogenesis, wild-type C57BL/6 mice (8 week old male; n=12) were injected with a nonpeptide antagonist of the C3aR, SB290157 (Calbiochem, San Diego, Calif., USA; 500 μg/mouse; Ames et al., J. Immunol. 166:6341-6348, 2001) diluted in PBS and DMSO (1.16% v/v) twice daily or vehicle for 10 days. Control mice (n=10) were given PBS and DMSO (1.16% v/v). During the first 7 days, all the mice also received bromodeoxyuridine (BrdU) (Sigma-Aldrich; 200 mg/kg). On day 10 after the first injection, the mice were deeply anesthetized and perfused.
Mouse brains were embedded in paraffin, cut into 8-μm sections, and stained with hematoxylin and erytrosin. For immunohistochemical evaluation, the sections were deparaffinized, permeabilized in 0.01 M citric acid (pH 6.0), heated twice for 5 min each in a microwave oven for antigen retrieval, and blocked with 0.1% BSA and 0.05% Triton-X-100 in PBS. Negative control was performed by omitting the primary antibody, unless stated otherwise.
Newly formed neurons were visualized by staining with biotinylated mouse anti-NeuN monoclonal antibody (Chemicon, Temecula, Calif., USA; 1:100) followed by Cy3-conjugated streptavidin (Sigma-Aldrich; 1:100) or Alexa633-conjugated streptavidin (Molecular Probes; 1:500) in combination with FITC-conjugated rat anti-BrdU antibody (Accurate Chemical, Westbury, N.Y., USA; 1:75). NeuN^pos BrdU^pos cells were counted in the penumbra on 2-3 sections per mouse. BrdU^pos cells were also counted in the SVZ. The sections were further stained with mouse anti-BrdU antibody (DAKO; 1:100) and Alexa 568 conjugated goat anti-mouse Ig (Molecular Probes; 1:500). BrdU^pos and NeuN^posBrdU^pos cells were counted in one hemisphere on 4-12 sections 160 μm apart/region in the granular layer of the olfactory bulb (bregma 3.2 mm to 4.28 mm) and dentate gyrus subgranular zone (bregma −1.34 mm to −3.64 mm).
Migrating neural progenitor cells were detected with goat anti-doublecortin (Dcx) antibody (Santa Cruz Biotechnology, Santa Cruz, Calif., USA; 1:50) followed by Alexa488-conjugated donkey anti-goat Ig (Molecular Probes; 1:100). Sections were further stained with mouse anti-BrdU antibody. BrdU^pos and Dcx^posBrdU^pos cells were counted in one hemisphere on 4-12 sections 160 μm apart/region in the SVZ (bregma 0.14 mm to 1.1 mm), the granular layer of the olfactory bulb (bregma 3.2 mm to 4.28 mm), and dentate gyrus subgranular zone (bregma −1.34 mm to −3.64 mm).
Proliferating migrating neuroblasts (Dcx^posBrdU^pos), newly formed neurons (NeuN^posBrdU^pos) and BrdU^pos cells were counted in the two principal sites of adult neurogenesis, SVZ and the dentate gyrus subgranular zone of the hippocampus, as well as in the olfactory bulb, the final destination for the neuroblasts originating in SVZ under basal conditions. In all three regions, the number of Dcx^posBrdU^pos cells was reduced in mice that received the C3aR antagonist. […] Also, the fraction of these cells among the BrdU^pos cells was reduced in the C3aR antagonist-treated mice: 19.0±1.1 vs. 26.7±1.7%, P<0.005 in the olfactory bulb; 13.1±0.6 vs. 17.3±0.8%, P<0.0005 in the dentate gyrus subgranular zone; and 26.4±0.8 vs. 31.4±1.2%, P<0.005 in the SVZ. […] The fraction of these cells among the BrdU^pos cells was reduced in the C3aR antagonist treated mice: 1.2±0.1 vs. 1.7±0.1%, P<0.005 in the olfactory bulb; 1.7±0.1 vs. 2.3±0.2%, P<0.05 in the dentate gyrus subgranular zone. The number of BrdU^pos cells in any of the regions was not affected by the C3aR antagonist treatment.

[1] = tested on: Neural stem cells, e.g., HCNA 94/GFPH; experiment: Neural stem cell differentiation assay (MAP2 immunostaining, DAPI); type: cell-based
Method: It was previously known that it was possible to modulate cells, other than neurons, via C3aR. Accordingly, C3aR antagonists blocked modulation via the receptor and C3aR agonists stimulated the receptor. To evaluate the effect of C3aR agonists on neural stem cell differentiation in vitro, a neural stem cell differentiation assay was performed as set out below.
Neural stem cells, e.g., HCNA 94/GFPH, were cultured with a C3aR agonist (C3a) at a concentration of either 10 nM or 100 nM for three to ten days in the presence and absence of a known C3aR antagonist, SB290157 (Ames at al., J. Immunol. 166: 6341-6348, 2001), at a concentration of 5-10 μM, administered to the culture either prior to or at the same time as the C3aR agonist. The number of cells that differentiated into neurons was measured by immunostaining with antibodies against MAP2 (Sigma) and visualized using 4′,6-Diamidino-2-phenylindole (DAPI) staining. A compound is regarded as a stimulator of neural stem cell differentiation into neurons if it stimulates differentiation into neurons at a rate at least 25% greater than control cells (cultured in the presence of medium alone). The effect of the C3aR agonist on neural stem cell differentiation was not blocked by SB290157 (see Table 5 below). Thus, SB290157 was not effective in inhibited neuronal cell differentiation at the concentrations tested.

Compound: endothelin 1: endothelin peptide, an ETBR agonist (CSCSSLMDKECVYFCHLDIIW; disulfide 1-15, 3-11; ends not checked; UniProt P05305 53-73, looked up)
effect on astrocyte hypertrophy (ETBR; ETBR agonist administration): leads to astrocyte hypertrophy

number of Dcx^posBrdU^pos cells, lower compared to control mice (C3aR; SVZ, P<0.05): 12.5%
fraction of Dcx^posBrdU^pos cells among the BrdU^pos cells (C3aR; SVZ, control 31.4±1.2%, P<0.005): 26.4±0.8%
number of BrdU^pos cells (C3aR; any of the regions (SVZ, dentate gyrus subgranular zone, olfactory bulb)): not affected
number of Dcx^posBrdU^pos cells, lower compared to control mice (C3aR; dentate gyrus subgranular zone, P<0.0005): 27%
fraction of NeuN^posBrdU^pos cells among the BrdU^pos cells (C3aR; dentate gyrus subgranular zone, control 2.3±0.2%, P<0.05): 1.7±0.1%
fraction of Dcx^posBrdU^pos cells among the BrdU^pos cells (C3aR; dentate gyrus subgranular zone, control 17.3±0.8%, P<0.0005): 13.1±0.6%
reduction in the number of NeuN^posBrdU^pos cells (C3aR; olfactory bulb and dentate gyrus subgranular zone, P<0.005): 22-25%
number of Dcx^posBrdU^pos cells, lower compared to control mice (C3aR; olfactory bulb, P<0.0005): 34%
fraction of NeuN^posBrdU^pos cells among the BrdU^pos cells (C3aR; olfactory bulb, control 1.7±0.1%, P<0.005): 1.2±0.1%
fraction of Dcx^posBrdU^pos cells among the BrdU^pos cells (C3aR; olfactory bulb, control 26.7±1.7%, P<0.005): 19.0±1.1%
Compound: NC(N)=NCCC[C@H](NC(=O)COCC(c1ccccc1)c1ccccc1)C(=O)O [SB290157]
inhibition of the C3aR agonist effect on neural stem cell differentiation ([1]; SB290157 5-10 μM, given prior to or with C3a 10 or 100 nM): not effective
% of MAP2+ Cells Among All DAPI+ Cells (Mean ± SEM) ([1]; SD290157 5 μM alone, culture medium alone 2.54 ± 0.12): 2.70 ± 0.19%

Compound: COc1ccccc1Oc1c(NS(=O)(=O)c2ccc(C(C)(C)C)cc2)nc(-c2ncccn2)nc1OCCO [Bosenthan]
effect on astrocyte hypertrophy (ETBR; ETBR antagonist in CNS trauma): reduced astrocyte hypertrophy
